Target: T1, Y314D-Ppara (Mus musculus, UniProt P23204, Y314D)
T1 construct: the entire mouse GFP-Ppara gene (GFP-FLPpara) and three different mutated genes were cloned; expressed in transfected cells; host or cells: Ppara-null mouse hippocampal neurons, lentiviral transduction
T1 sequence (P23204 1-468 Y314D): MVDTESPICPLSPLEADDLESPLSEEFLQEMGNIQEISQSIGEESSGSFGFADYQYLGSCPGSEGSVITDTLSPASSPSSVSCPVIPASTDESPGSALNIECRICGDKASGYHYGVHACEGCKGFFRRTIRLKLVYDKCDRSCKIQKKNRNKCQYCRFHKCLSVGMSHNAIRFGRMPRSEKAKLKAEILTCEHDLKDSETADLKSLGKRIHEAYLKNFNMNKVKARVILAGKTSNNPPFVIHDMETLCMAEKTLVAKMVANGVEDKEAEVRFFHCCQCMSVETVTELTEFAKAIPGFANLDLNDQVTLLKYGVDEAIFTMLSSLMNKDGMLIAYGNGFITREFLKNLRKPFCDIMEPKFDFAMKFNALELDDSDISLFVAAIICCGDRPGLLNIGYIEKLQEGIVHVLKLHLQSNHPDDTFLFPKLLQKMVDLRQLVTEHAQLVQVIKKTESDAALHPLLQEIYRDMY
Assay: GC-MS of GFP-affinity purified extract of transduced Ppara-null hippocampal neurons
Type: binding
Details: lenti-GFP-Y314D-Ppara transduced Ppara-null neurons
Procedure: Lentivirus-mediated de novo expression studies were performed, where wild type full-length (GFP-FLPpara) was overexpressed and three different LBD-mutated PPARα (GFP-Y314D, GFP-Y464D and GFP-Y314D/Y464D Ppara) recombinant proteins (FIG. 9D) were expressed in neurons followed by binding analyses with three endogenous ligands. Briefly, site directed mutagenesis was performed in the mouse PPARα with Y314 and Y464 residues replaced separately or together with aspartate (D). […] We normalized peak area of different ligands with that of internal standard and then quantified the binding affinity of these ligands with different construct of PPARα by peak integration statistics (Table 1).
Either E18 cultured mouse hippocampal neurons or hippocampal tissue of 6-8 week old male C57/BL6 mice were homogenized in ice-cold nondetergent hypotonic buffer [10 mM HEPES (pH 7.9), 1.5 mM MgCl2, 10 mM KCl, […], protease and phosphatase inhibitor cocktail]. […] The organic phase was collected, evaporated in the SpeedVac, reconstituted with 30 μL chloroform or acetonitrile, and then analyzed by GC-MS. […] After that, the eluate was collected from the column with 5M NaCl solution, concentrated with PD-10 desalting column and analyzed for GC-MS. […]

amount detected in nuclear extract by GC-MS	SMILES
low amount	CCCCCCCCCCCCCCCC(N)=O [HEX, hexadecanamide]
low amount	CCCCCCCCC=CCCCCCCCC(N)=O [OCT, 9-octadecenamide]

Reference: US10617664B2, “Brain derived PPARα ligands” (Rush University Medical Center, priority 2015, dated 2020)
